From PubChem BioAssay AID330 (DTP/NCI, 2004)
“And” between values parts separate entries of the source, which are not always exact repeats. Equal entries are not always repeated. Inconclusive results and toxic doses are left out. How the source made its calls: active means survival T/C of 150% or more; inactive means T/C below 125% in these data.

Test system: P388 leukemia ip, CD2F1 mice, survival T/C
Assay: NCI In Vivo Anticancer Drug Screen. Data for tumor model P388 Leukemia (intraperitoneal) in CD2F1 (CDF1) mice
Details: endpoint: median survival time, higher = longer survival
In short: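 Mice carrying the transplanted tumor received test compound or vehicle. Survival was recorded in each group, and the value is the treated-group measurement divided by that of the vehicle-treated control group.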

[1] = dose: 50.0 mg/kg/injection, schedule: Q01DX005 (ip), vehicle: saline with Tween-80
[2] = dose: 100.0 mg/kg/injection, schedule: Q01DX005 (ip), vehicle: saline with Tween-80
[3] = dose: 200.0 mg/kg/injection, schedule: Q01DX005 (ip), vehicle: saline with Tween-80
[4] = dose: 25.0 mg/kg/injection, schedule: Q01DX005 (ip), vehicle: Klucel (hydroxypropylcellulose) (HPC)
[5] = dose: 50.0 mg/kg/injection, schedule: Q01DX005 (ip), vehicle: Klucel (hydroxypropylcellulose) (HPC)
[6] = dose: 100.0 mg/kg/injection, schedule: Q01DX005 (ip), vehicle: Klucel (hydroxypropylcellulose) (HPC)
[7] = dose: 200.0 mg/kg/injection, schedule: Q01DX005 (ip), vehicle: Klucel (hydroxypropylcellulose) (HPC)
[8] = dose: 100.0 mg/kg/injection, schedule: Q04DX002 (ip), vehicle: saline with Tween-80
[9] = dose: 200.0 mg/kg/injection, schedule: Q04DX002 (ip), vehicle: saline with Tween-80
[10] = dose: 400.0 mg/kg/injection, schedule: Q04DX002 (ip), vehicle: saline with Tween-80
[11] = dose: 50.0 mg/kg/injection, schedule: Q04DX002 (ip), vehicle: saline with Tween-80
[12] = dose: 100.0 mg/kg/injection, schedule: Q01DX009 (ip), vehicle: saline with Tween-80
[13] = dose: 200.0 mg/kg/injection, schedule: Q01DX009 (ip), vehicle: saline with Tween-80

Measured: T/C

COc1ccc(C(c2cc(C(C)(C)C)c(O)c(C(C)(C)C)c2)N2CCCCC2)cc1 (centres undefined)
inactive: [1] 102 % of control | [2] 109 % of control | [3] 112 % of control

O=C1OC(=O)C2C3C=CC(C4C=C(c5ccccc5)C43)C12 (centres undefined)
inactive: dose: 50.0 mg/kg/injection, schedule: Q01DX009 (ip), vehicle: saline 106 % of control | dose: 100.0 mg/kg/injection, schedule: Q01DX009 (ip), vehicle: saline 92 % of control | dose: 200.0 mg/kg/injection, schedule: Q01DX009 (ip), vehicle: saline 107 % of control

Cn1c([N+](=O)[O-])cnc1CSc1ccc(C#N)cc1
inactive: [4] 105 % of control | [5] 104 % of control | [6] 92 % of control | [7] 114 % of control

O=C1OC2C=CC=CN2C(=O)C1Cc1ccccc1 (centres undefined)
inactive: dose: 60.0 mg/kg/injection, schedule: Q01DX005 (ip), vehicle: Klucel (hydroxypropylcellulose) (HPC) 105 % of control | dose: 120.0 mg/kg/injection, schedule: Q01DX005 (ip), vehicle: Klucel (hydroxypropylcellulose) (HPC) 102 % of control | dose: 240.0 mg/kg/injection, schedule: Q01DX005 (ip), vehicle: Klucel (hydroxypropylcellulose) (HPC) 100 % of control

COc1cc2c(c(OC)c1OC)-c1ccc(OC)c(=O)cc1C([N+](C)(C)C)CC2 (centres undefined)
inactive: dose: 2.5 mg/kg/injection, schedule: Q01DX009 (ip), vehicle: Klucel (hydroxypropylcellulose) (HPC) 94 % of control | dose: 5.0 mg/kg/injection, schedule: Q01DX009 (ip), vehicle: Klucel (hydroxypropylcellulose) (HPC) 100 % of control | dose: 10.0 mg/kg/injection, schedule: Q01DX009 (ip), vehicle: Klucel (hydroxypropylcellulose) (HPC) 103 % of control | dose: 20.0 mg/kg/injection, schedule: Q01DX009 (ip), vehicle: Klucel (hydroxypropylcellulose) (HPC) 100 % of control

CC1C2CCN(C)C1Cc1ccc(O)cc12 (centres undefined)
inactive: [1] 94 % of control | [2] 92 % of control | [3] 100 % of control

S=C(Nc1ccc(Cl)c(Cl)c1)N1c2ccccc2-n2cccc2C1c1cccnc1 (centres undefined)
inactive: dose: 25.0 mg/kg/injection, schedule: Q01DX009 (ip), vehicle: Klucel (hydroxypropylcellulose) (HPC) 115 % of control | dose: 50.0 mg/kg/injection, schedule: Q01DX009 (ip), vehicle: Klucel (hydroxypropylcellulose) (HPC) 113 % of control | dose: 100.0 mg/kg/injection, schedule: Q01DX009 (ip), vehicle: Klucel (hydroxypropylcellulose) (HPC) 113 % of control | dose: 200.0 mg/kg/injection, schedule: Q01DX009 (ip), vehicle: Klucel (hydroxypropylcellulose) (HPC) 121 % of control

CNC(=S)NNc1ccc(Cl)nn1
inactive: dose: 100.0 mg/kg/injection, schedule: Q01DX001 (ip), vehicle: saline 96 % of control | dose: 200.0 mg/kg/injection, schedule: Q01DX001 (ip), vehicle: saline 96 % of control | dose: 400.0 mg/kg/injection, schedule: Q01DX001 (ip), vehicle: saline 102 % of control

NNS(=O)(=O)CCC(NC(=O)OCc1ccccc1)C(=O)OCc1ccccc1 (centres undefined)
inactive: dose: 12.5 mg/kg/injection, schedule: Q01DX009 (ip), vehicle: other 98 % of control | dose: 25.0 mg/kg/injection, schedule: Q01DX009 (ip), vehicle: other 103 % of control | dose: 50.0 mg/kg/injection, schedule: Q01DX009 (ip), vehicle: other 94 % of control | dose: 100.0 mg/kg/injection, schedule: Q01DX009 (ip), vehicle: other 94 % of control | dose: 200.0 mg/kg/injection, schedule: Q01DX009 (ip), vehicle: other 98 % of control

CC(=O)OC1COC(Nc2[nH]c(=O)n(C)c(=O)c2C(=O)CCl)C(OC(C)=O)C1OC(C)=O (centres undefined)
inactive: [1] 104 % of control | [2] 96 % of control | [3] 93 % of control

COc1ccc2ccc3c(c2c1)C(=O)C(CC(N)=O)C3 (centres undefined)
inactive: dose: 12.5 mg/kg/injection, schedule: Q01DX009 (ip), vehicle: distilled water + Tween-80 97 % of control | dose: 25.0 mg/kg/injection, schedule: Q01DX009 (ip), vehicle: distilled water + Tween-80 93 % of control | dose: 50.0 mg/kg/injection, schedule: Q01DX009 (ip), vehicle: distilled water + Tween-80 92 % of control | dose: 200.0 mg/kg/injection, schedule: Q01DX009 (ip), vehicle: distilled water + Tween-80 93 % of control

OCC(O)C1OC(c2ccccc2)OC2COC(c3ccccc3)OC21 (centres undefined)
inactive: [8] 97 % of control | [9] 86 % of control | [10] 89 % of control

O=C(Nc1ccc(Br)c2c(NC(=O)c3ccccc3)ccc(Br)c12)c1ccccc1
inactive: dose: 1.5 mg/kg/injection, schedule: Q01DX009 (ip), vehicle: saline with Tween-80 100 % of control | dose: 3.0 mg/kg/injection, schedule: Q01DX009 (ip), vehicle: saline with Tween-80 90 % of control | dose: 6.0 mg/kg/injection, schedule: Q01DX009 (ip), vehicle: saline with Tween-80 90 % of control

CC(C)N1C(=O)C2C3C=CC(C3)C2C1=O (centres undefined)
inactive: dose: 25.0 mg/kg/injection, schedule: Q04DX002 (ip), vehicle: saline with Tween-80 94 % of control | [11] 108 % of control

CSc1nc(N)c(C(=O)c2sc(SC)nc2N)s1
inactive: dose: 12.5 mg/kg/injection, schedule: Q01DX005 (ip), vehicle: Klucel (hydroxypropylcellulose) (HPC) 100 % of control | [4] 92 % of control | [5] 90 % of control and 97 % of control

CC(SSc1ccc(C(C)(C)C)cc1)c1ccccc1 (centres undefined)
inactive: [5] 96 % of control | [6] 104 % of control | [7] 109 % of control

N#CC1CCCC(C#N)N1 (centres undefined)
inactive: dose: 6.25 mg/kg/injection, schedule: Q01DX005 (ip), vehicle: saline 100 % of control | dose: 12.5 mg/kg/injection, schedule: Q01DX005 (ip), vehicle: saline 88 % of control | dose: 25.0 mg/kg/injection, schedule: Q01DX005 (ip), vehicle: saline 100 % of control

CC(C)(C)C1=CC(=CC=C2C=CN(CCCCCCCCCCCO)C=C2)C=C(C(C)(C)C)C1=O
inactive: dose: 60.0 mg/kg/injection, schedule: Q01DX005 (ip), vehicle: saline with Tween-80 108 % of control | dose: 120.0 mg/kg/injection, schedule: Q01DX005 (ip), vehicle: saline with Tween-80 107 % of control | dose: 240.0 mg/kg/injection, schedule: Q01DX005 (ip), vehicle: saline with Tween-80 110 % of control

CC1CCCC(C)N1NC1=NCCO1 (centres undefined)
inactive: dose: 25.0 mg/kg/injection, schedule: Q04DX003 (ip), vehicle: saline with Tween-80 104 % of control | dose: 50.0 mg/kg/injection, schedule: Q04DX003 (ip), vehicle: saline with Tween-80 95 % of control

Nc1cc(Cl)ccc1[N+](=O)[O-]
inactive: [12] 108 % of control | [13] 99 % of control | dose: 400.0 mg/kg/injection, schedule: Q01DX009 (ip), vehicle: saline with Tween-80 89 % of control

CN(C)c1ccc(/C=N/N=C2\C(=O)Nc3c(Cl)cc(Cl)cc32)cc1
inactive: dose: 50.0 mg/kg/injection, schedule: Q01DX009 (ip), vehicle: saline with Tween-80 95 % of control | [12] 97 % of control | [13] 95 % of control

Cc1cc2cc(CN3C(=O)c4ccccc4C3=O)ccc2[nH]1
inactive: dose: 100.0 mg/kg/injection, schedule: Q01DX001 (ip), vehicle: Klucel (hydroxypropylcellulose) (HPC) 100 % of control | dose: 200.0 mg/kg/injection, schedule: Q01DX001 (ip), vehicle: Klucel (hydroxypropylcellulose) (HPC) 93 % of control | dose: 400.0 mg/kg/injection, schedule: Q01DX001 (ip), vehicle: Klucel (hydroxypropylcellulose) (HPC) 93 % of control

Brc1cccc(C(Nc2nncs2)Nc2nncs2)c1
inactive: [11] 91 % of control | [8] 92 % of control and 95 % of control | [9] 100 % of control and 111 % of control | [10] 124 % of control
